System: castrated immature rats
Assay: In vivo anti-androgenic activity in castrated immature rats treated with testosterone propionate
Design: species or system rat
Text: […] male Wistar rats were obtained from the Animal House Colony, Research Institute of Ophthalmology, Giza, Egypt. Prepubertal male rats aged 3 weeks were castrated using the scrotal route under ether anesthesia.

SMILES: CC(O)(CS(=O)(=O)c1ccc(F)cc1)C(=O)Nc1ccc(C#N)c(C(F)(F)F)c1 (centres unmarked) [Bicalutamide, reference compound]
- ED50 (Rattus norvegicus, castrated immature rats, TP 0.5 mg/kg s.c., compound p.o., read-out: ED50, in vivo anti-androgen activity): 1.6 mg/kg
- % (Inhibition), in vivo anti-androgen activity (inhibition of TP effect (TP 0.5 mg/kg s.c. once daily for 5 days), tested compound 10-30 mg/kg p.o.): 75%

— publication PMC4264242, “Androgen Receptor Antagonists and Anti-Prostate Cancer Activities of Some Newly Synthesized Substituted Fused Pyrazolo-, Triazolo- and Thiazolo-Pyrimidine Derivatives” (International Journal of Molecular Sciences, 2014)
